One experiment concerns the target T1, caspase-3 (C3) (Homo sapiens, UniProt P42574).
T1 sequence (P42574 29-175 limits assumed): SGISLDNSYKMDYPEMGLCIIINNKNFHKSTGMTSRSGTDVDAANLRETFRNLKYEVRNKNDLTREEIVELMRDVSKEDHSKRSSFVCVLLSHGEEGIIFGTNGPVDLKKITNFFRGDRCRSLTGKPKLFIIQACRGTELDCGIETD
The experiment in a line: Caspase-3 biochemical activity assay with fluorogenic substrate. An excerpt:
Error bars represent the standard deviation of thre replicate measurements. […] Activity measured by the cleavage of aminofluorocoumarin-labeled peptides (see the Supporting Information for sequences). C = caspase.

Experiment [1] addresses T2, proteins of HEK293T cells transiently overexpressing caspase-6 (Homo sapiens, UniProt P14324).
T2 sequence (P14324 1-419): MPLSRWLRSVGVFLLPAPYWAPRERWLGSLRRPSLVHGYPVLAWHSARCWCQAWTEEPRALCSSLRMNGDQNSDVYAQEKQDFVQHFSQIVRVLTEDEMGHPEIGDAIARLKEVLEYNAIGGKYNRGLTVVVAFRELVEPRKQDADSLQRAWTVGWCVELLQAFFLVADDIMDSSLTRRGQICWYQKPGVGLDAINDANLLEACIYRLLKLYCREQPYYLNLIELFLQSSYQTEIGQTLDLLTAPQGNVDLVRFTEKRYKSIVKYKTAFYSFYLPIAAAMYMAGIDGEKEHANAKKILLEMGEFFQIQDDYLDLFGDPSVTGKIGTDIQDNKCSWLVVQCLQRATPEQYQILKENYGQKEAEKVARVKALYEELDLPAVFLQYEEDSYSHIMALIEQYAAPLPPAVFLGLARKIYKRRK
The experiment in a line: SILAC proteomics / in-gel fluorescence, competition of probe 13-t labeling by 3a.

The target in experiment [2] is proteins of HEK293T cells transiently overexpressing caspase-6 (Homo sapiens, UniProt P10809). The description is as above. The following applies: Comp; protein HSPD1 P10809.
Experiment [3] deals with proteins of HEK293T cells transiently overexpressing caspase-6 (Homo sapiens, UniProt P27635). The description is as above. The following applies: Comp; protein RPL10 P27635.
Experiment [4] has as its target proteins of HEK293T cells transiently overexpressing caspase-6 (Homo sapiens, UniProt P62906). Described as above. The following applies: Comp; protein RPL10A P62906.
In another experiment the test system is human caspases C1–C10. The experiment in a line: Caspase selectivity assays (Eurofins/Panlabs), 10 µM 3a. The following applies: 3a at 10 μM. It is filed as biochemical.
Experiment [5] addresses proteins of HEK293T cells transiently overexpressing caspase-6 (Homo sapiens, UniProt Q9Y262). Type of experiment: cell-based. The following applies: exp_ref Probe; protein EIF3L (Q9Y262); analysis C6.
Experiment [6] has as its target T3, proteins of HEK293T cells transiently overexpressing caspase-6 (Homo sapiens, UniProt P05165).
T3 sequence (P05165 53-728): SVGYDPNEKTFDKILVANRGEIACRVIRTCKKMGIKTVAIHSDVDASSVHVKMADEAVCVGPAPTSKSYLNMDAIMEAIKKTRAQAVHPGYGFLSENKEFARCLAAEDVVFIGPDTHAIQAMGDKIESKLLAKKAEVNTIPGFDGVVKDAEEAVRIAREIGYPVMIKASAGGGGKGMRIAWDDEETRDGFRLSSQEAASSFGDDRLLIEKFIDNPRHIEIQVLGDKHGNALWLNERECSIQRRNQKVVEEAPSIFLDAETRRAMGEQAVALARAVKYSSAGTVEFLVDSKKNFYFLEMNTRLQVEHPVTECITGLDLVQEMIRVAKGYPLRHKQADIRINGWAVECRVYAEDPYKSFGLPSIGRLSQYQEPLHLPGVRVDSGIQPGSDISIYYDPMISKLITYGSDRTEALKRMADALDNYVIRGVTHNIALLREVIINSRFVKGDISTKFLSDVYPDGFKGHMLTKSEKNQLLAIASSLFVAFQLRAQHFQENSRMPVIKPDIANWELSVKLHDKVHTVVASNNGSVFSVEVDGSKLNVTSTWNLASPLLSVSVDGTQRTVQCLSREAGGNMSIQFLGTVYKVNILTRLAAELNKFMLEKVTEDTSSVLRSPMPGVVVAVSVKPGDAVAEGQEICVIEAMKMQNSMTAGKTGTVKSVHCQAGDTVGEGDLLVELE
Type of experiment: cell-based.

Experiment [7] concerns the target T4, proteins of HEK293T cells transiently overexpressing caspase-6 (Homo sapiens, UniProt P46977).
T4 sequence (P46977 1-705): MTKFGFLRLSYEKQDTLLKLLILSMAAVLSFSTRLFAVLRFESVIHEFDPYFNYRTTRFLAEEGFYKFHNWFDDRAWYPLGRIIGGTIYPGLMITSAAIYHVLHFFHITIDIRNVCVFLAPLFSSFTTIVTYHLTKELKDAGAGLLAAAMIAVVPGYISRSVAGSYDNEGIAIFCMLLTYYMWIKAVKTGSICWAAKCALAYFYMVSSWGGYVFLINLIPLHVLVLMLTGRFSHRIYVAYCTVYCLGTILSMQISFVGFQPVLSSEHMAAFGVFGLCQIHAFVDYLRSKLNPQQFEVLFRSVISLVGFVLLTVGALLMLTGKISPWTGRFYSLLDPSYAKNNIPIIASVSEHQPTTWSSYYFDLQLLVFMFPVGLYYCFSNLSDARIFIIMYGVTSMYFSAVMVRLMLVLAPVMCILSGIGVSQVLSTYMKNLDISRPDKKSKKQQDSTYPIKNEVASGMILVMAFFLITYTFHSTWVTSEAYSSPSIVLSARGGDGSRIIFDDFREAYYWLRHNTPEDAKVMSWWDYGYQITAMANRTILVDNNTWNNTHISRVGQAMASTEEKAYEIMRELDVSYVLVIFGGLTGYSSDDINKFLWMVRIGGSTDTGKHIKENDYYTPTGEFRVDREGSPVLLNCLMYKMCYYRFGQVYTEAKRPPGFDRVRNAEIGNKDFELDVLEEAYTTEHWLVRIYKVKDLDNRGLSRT
Type of experiment: cell-based. The following applies: protein STT3A (P46977).

The mark [8] stands for this setting: protein FDPS (P14324), Exp Comp, analysis C6, p 0.2500, 4 peptides.

The structures appear in SMILES notation. pIC50: −log10 of the molar value.

Sequence of proteins of HEK293T cells transiently overexpressing caspase-6 (Homo sapiens, UniProt P10809) (P10809 27-573): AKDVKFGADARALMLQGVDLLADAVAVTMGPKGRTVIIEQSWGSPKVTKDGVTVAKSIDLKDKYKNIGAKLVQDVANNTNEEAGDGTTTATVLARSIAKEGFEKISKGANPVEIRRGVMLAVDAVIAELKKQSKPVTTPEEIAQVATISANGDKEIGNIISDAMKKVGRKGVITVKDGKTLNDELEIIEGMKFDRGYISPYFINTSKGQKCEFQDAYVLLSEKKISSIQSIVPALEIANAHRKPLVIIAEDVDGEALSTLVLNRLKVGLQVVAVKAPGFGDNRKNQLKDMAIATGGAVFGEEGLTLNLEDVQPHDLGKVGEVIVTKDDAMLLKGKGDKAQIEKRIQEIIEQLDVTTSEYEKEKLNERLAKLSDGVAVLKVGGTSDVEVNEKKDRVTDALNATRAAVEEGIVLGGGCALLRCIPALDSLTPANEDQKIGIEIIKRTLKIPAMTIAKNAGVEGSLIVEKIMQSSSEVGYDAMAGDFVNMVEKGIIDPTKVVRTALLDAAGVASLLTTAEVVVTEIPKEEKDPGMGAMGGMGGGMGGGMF
Sequence of proteins of HEK293T cells transiently overexpressing caspase-6 (Homo sapiens, UniProt Q9Y262) (Q9Y262 whole entry): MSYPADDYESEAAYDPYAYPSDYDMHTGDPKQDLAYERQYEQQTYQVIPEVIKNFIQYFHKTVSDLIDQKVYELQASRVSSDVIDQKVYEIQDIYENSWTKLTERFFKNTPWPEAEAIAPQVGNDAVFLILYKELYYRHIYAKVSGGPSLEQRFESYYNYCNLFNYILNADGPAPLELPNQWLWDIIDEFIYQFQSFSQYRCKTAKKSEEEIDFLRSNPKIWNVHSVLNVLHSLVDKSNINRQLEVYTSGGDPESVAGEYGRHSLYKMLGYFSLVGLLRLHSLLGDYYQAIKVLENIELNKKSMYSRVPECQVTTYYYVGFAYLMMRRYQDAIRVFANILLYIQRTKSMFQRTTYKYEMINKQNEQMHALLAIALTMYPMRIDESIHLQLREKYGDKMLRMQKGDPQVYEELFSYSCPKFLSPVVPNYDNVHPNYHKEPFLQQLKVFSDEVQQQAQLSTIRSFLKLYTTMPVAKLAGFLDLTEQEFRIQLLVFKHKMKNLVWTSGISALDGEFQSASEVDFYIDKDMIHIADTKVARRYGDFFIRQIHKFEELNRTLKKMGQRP

On to `C=CS(=O)(=O)N1C[C@H](C(=O)Nc2ccc(OC(F)(F)F)cc2)C[C@@H](c2ccccc2)C1` [3a], for which, at caspase-3 (C3), the “activity against C3 (in words)” value was “lack of activity”. Besides, on caspase-3 (C3) (read-out: Casp-3 IC50), the pIC50 is < 3.30. Further, the enrich.exp.med in experiment [1] (Comp, protein FDPS P14324) was 1.087; in experiment [2], 0.6402; in experiment [3], 0.809; in experiment [4], 0.678. This molecule also gave an enrich.exp.med.lin in experiment [1] (setting [8]) of 2.124. Also, the enrich.exp.med.log2 in [1] (setting [8]) turned out to be 1.087. Further, the “effect on the other caspase isoforms (in words)” value with human caspases C1–C10 is listed as “little, if any, effect”.

Regarding `C#CCOc1ccc([C@@H]2C[C@@H](C(=O)Nc3ccc(OC(F)(F)F)cc3)CN(S(=O)(=O)C=C)C2)cc1` (relative stereo) [13-t], the enrich.exp.med is 0.2171 in experiment [5]; -2.194 in experiment [6] (Probe, protein PCCA P05165); 1.948 in experiment [7] (exp_ref Probe, analysis C6). Moreover, the enrich.exp.med.lin in experiment [6] (protein PCCA (P05165)) is 0.2185; in experiment [7], 3.857. Besides, the enrich.exp.med.log2 in experiment [6] (protein PCCA (P05165)) is on record as -2.194; in experiment [7], 1.948.

The record behind these values is publication PMC10176470, “Engaging a Non-catalytic Cysteine Residue Drives Potent and Selective Inhibition of Caspase-6” (Journal of the American Chemical Society, 2023).
